Read-outs that look alike come from different tables or passages of the source.
Experiments:
BRD9 = target: T1, BRD9 (Homo sapiens, UniProt Q9H8M2); test: Western blotting of BRD9 protein levels in U937 cells; assay type: cell-based; conditions: for BRD9 protein levels (degradation): different concentrations
T1 construct: WB analysis showing BRD9 protein levels following 48‐hours treatments with compounds 2−8; endogenous in cells; host or cells: U937 (ATCC)
T1 sequence (Q9H8M2 1-597): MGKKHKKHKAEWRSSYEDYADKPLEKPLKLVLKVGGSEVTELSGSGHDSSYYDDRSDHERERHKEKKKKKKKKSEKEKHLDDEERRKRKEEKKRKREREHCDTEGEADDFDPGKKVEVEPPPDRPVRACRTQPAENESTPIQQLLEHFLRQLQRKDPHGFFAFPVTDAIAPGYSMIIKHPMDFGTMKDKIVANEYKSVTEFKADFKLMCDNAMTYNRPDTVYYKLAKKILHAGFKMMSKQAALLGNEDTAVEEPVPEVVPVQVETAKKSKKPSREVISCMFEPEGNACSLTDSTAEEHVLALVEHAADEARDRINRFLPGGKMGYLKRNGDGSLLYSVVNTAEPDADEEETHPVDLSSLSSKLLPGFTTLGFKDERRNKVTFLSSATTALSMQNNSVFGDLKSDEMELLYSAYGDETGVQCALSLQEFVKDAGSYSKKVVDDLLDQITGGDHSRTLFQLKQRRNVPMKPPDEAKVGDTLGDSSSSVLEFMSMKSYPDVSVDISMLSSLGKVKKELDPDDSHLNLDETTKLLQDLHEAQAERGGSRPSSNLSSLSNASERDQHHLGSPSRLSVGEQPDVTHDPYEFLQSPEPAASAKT
Description: Cells have been authenticated by STR profiling.
Western blot was performed according to the previous protocol.^[ [71], [72] ^] U937 AML cells were pelleted and then lysed in RIPA buffer (1% Triton X‐100, 0.1% SDS, 150 mM NaCl, 1 mM EDTA pH 8, 10 mM Tris‐HCl pH 8) added with 1% protease inhibitor cocktail. The resulting lysate was subjected to centrifugation for 15 minutes at 4 °C. […] The protein signal was visualized by enhanced chemiluminescence method (ECL) through the Bio‐Rad Chemidoc machine. ImageJ software was used for densitometric analysis.

U937 cells [1] = test: CCK8 viability assay in U937 cells; assay type: cell-based, human; conditions: for U937 cell viability: CCK8, 48 hours treatment
Description: (§1) The AML U937 cell line (ATCC) was grown in Roswell Park Memorial Institute (RPMI) 1640 Medium with the addition of 10% fetal bovine serum (FBS), 1% L‐glutamine, and 1% antibiotics (100 U/mL penicillin, 100 µg/mL streptomycin, and 250 ng/mL amphotericin‐B). Cells have been authenticated by STR profiling.
CCK8 was purchased from Elabscience and used according to manufacturer instructions, briefly: 100 µL of cell suspension was added to each well using a 96‐well microplate. Cells were then incubated at 37 °C, in a 5% CO2 incubator for 24 hours. Compounds were added to the cells and incubated for an additional 48 hours at 37 °C. Next, 10 µL of CCK‐8 Buffer was added to each well, and cells were incubated again for 4 hours. Next, 450 nm absorbance was measured using a TECAN microplate reader.

BRD9 (BD1) [2] = target: T2, BRD9 (BD1) (Homo sapiens, UniProt Q9H8M2); test: AlphaScreen assay, BRD9 (BD1) Inhibitor Screening Assay Kit; assay type: binding; conditions: for IC50: AlphaScreen, read-out: IC50, BRD9 binding
T2 construct: BSP‐32519
T2 sequence (Q9H8M2 136-240 limits assumed): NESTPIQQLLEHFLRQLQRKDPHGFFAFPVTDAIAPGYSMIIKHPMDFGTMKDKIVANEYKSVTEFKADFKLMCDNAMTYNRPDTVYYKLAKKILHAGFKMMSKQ
Description: The evaluation of the interaction between synthesized compounds and BRD9 was conducted using AlphaScreen Technology using an Enspire microplate analyzer (Perkin Elmer)^[ [70] ^] and the BRD9 (BD1) Inhibitor Screening Assay Kit (BSP‐32519) as reported by Colarusso et al.^[ [38], [39] ^] IC50 values were calculated by GraphPad Prism10 software.

Human plasma stability = assay type: in vitro ADME; conditions: incubation up to 120 minutes, 37 °C, read-out: compound recovery after incubation with human plasma
Description: The plasma stability of compounds 2 and 9 was evaluated. Briefly, the plasma was equilibrated at 37 °C, and biotransformation was initiated by adding the compound solution and mixing. At each specified time point (0, 60, and 120 minutes), test compounds were extracted into 200 µL ice‐cold methanol to stop degradation. Tolbutamide was added during the quenching phase. Finally, the concentration of the test compound was monitored by LC‐MS. The percentage of the test compound remaining at each individual time point was reported. The results are reported as mean ± SD from three independent experiments. Procaine and procainamide were used as controls.

[3] = Microsomal stability in human liver microsomes (HLMs); assay type: in vitro ADME; conditions: LC-MS/MS analysis
Description: In our assay we followed the loss of the test compounds over time under CYP‐mediated metabolic pathways. The extent of hepatic metabolism allowed us the determination of different pharmacokinetic parameters such as in vitro t1/2, CLint, in vitro and CLint, in vivo. In vitro t1/2 and CLint, in vitro of test compounds after liver microsomes incubation were calculated according to “well‐stirred” model. In the “well‐stirred” model, the liver is represented by a single compartment, where the unbound concentration of a drug leaving the liver is in equilibrium with the intracellular unbound concentration in the hepatocytes.^[ [53] ^] Predicted CLint, invivo values were determined using human PBSF.^[ [54] ^]
The microsomal stability of compounds 2 and 9 was assessed according to the previously described protocol.^[ [73] ^] […] The supernatants were collected and analyzed by LC‐MS/MS. The extent of metabolism is quantified as a percentage of the parent compound turnover. […] In vitro half‐lives (t1/2) were calculated using the expression t1/2 = 0.693/b, where b is the slope found in the linear fit of the natural logarithm of the fraction remaining of the parent compound versus incubation time. Microsomal intrinsic clearance was calculated as CLint , in vitro = (1000) × (0.693/t1/2)/0.5. […]

BRD7 = target: T3, BRD7 (Homo sapiens, UniProt Q9NPI1); test: Western blotting of BRD7 protein levels in U937 cells; assay type: cell-based; conditions: 48 hours treatment, western blot
T3 construct: WB analysis showing BRD9 and BRD7 protein levels following 48‐hours treatment with compound 9; endogenous in cells; host or cells: U937 (ATCC)
T3 sequence (Q9NPI1 1-651): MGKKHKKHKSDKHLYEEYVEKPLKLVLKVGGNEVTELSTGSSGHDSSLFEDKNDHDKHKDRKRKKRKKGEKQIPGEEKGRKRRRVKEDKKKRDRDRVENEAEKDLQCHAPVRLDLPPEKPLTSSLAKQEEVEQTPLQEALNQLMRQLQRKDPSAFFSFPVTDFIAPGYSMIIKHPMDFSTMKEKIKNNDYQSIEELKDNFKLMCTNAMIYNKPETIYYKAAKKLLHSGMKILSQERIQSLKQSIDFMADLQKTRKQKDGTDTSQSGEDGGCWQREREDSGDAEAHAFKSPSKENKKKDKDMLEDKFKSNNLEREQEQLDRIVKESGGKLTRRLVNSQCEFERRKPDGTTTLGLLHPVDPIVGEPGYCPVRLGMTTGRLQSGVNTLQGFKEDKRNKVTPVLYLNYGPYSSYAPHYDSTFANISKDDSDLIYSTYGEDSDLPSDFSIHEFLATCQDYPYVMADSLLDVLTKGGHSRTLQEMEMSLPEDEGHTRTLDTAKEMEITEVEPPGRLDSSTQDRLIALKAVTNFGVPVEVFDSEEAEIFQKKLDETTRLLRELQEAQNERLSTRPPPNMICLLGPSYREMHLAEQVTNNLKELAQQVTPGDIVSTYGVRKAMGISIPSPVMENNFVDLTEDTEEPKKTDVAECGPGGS
Description: as §1
Western blot was performed according to the previous protocol.^[ [71], [72] ^] U937 AML cells were pelleted and then lysed in RIPA buffer (1% Triton X‐100, 0.1% SDS, 150 mM NaCl, 1 mM EDTA pH 8, 10 mM Tris‐HCl pH 8) added with 1% protease inhibitor cocktail. The resulting lysate was subjected to centrifugation for 15 minutes at 4 °C. After that, the supernatant was collected and supplemented with 6X Laemmli buffer (0.217 M Tris‐HCl pH 8.0, 52.17% SDS, 17.4% glycerol, 0.026% bromophenol blue, 8.7% beta‐mercapto‐ethanol) and boiled for 3 minutes at 99 °C,25 µg of protein extract were resolved by SDS‐polyacrylamide gel electrophoresis and then transferred on nitrocellulose membrane (Bio‐Rad). The membrane was probed with anti‐BRD9 (Bethyl Laboratories #A303‐781A), anti‐BRD7 (Invitrogen #PA5‐40379), anti‐GADPH (Elabscience # E‐AB‐40337), and anti‐α‐tubulin (Elabscience # E‐AB‐20036). The protein signal was visualized by enhanced chemiluminescence method (ECL) through the Bio‐Rad Chemidoc machine. ImageJ software was used for densitometric analysis. […]

U937 cells [4] = test: Proliferation assay (trypan blue exclusion cell counting) in U937 cells; assay type: cell-based, human; conditions: time-point treatment
Description: as §1
Trypan blue exclusion cell counting has been used to trace the number of cells over the different times of analysis.

BRD9 (BD1) [5] = target: T2, BRD9 (BD1); design: method as in PMID 34823196; conditions: previously disclosed; read-out: IC50, affinity for BRD9; cited from earlier work
[6] = 48 hours treatment, western blot

With `CCc1nnc2c(Nc3cccc(NC(=O)CCOCCOCCNc4cccc5c4C(=O)N(C4CCC(=O)NC4=O)C5=O)c3)nc3ccccc3n12` (stereo not drawn) [compound 6] the “BRD9 protein levels (degradation)” value (BRD9; [6]) was “no effect was observed” and the U937 cell viability (U937 cells [1]) was “did not observe variation in cell viability”.
For `CCc1nnc2c(Nc3cccc(NC(=O)CCCCCCOCCOCC(=O)Nc4cccc5c4C(=O)N(C4CCC(=O)NC4=O)C5=O)c3)nc3ccccc3n12` (stereo not drawn) [compound 8], the “BRD9 protein levels (degradation)” value (BRD9; [6]) was “no effect was observed” and the U937 cell viability (U937 cells [1]) was “did not observe variation in cell viability”.
In the case of `CCc1nnc2c(Nc3cccc(NC(=O)CCCCCCOCCOCC(=O)N[C@H](C(=O)N4C[C@H](O)C[C@H]4C(=O)NCc4ccc(-c5scnc5C)cc4)C(C)(C)C)c3)nc3ccccc3n12` [compound 2], the “residual binding of histone H4” value (BRD9 (BD1) [2]; 10 µM ligand concentration) is reported as 21.6 ± 0.3%, the IC50 (BRD9 (BD1) [2]) is reported as 2970 ± 250 nM and the U937 cell viability (U937 cells [1]) is reported as “strong reduction of cell viability”. For the same molecule, the recovery at 120 min (Human plasma stability) was ≥ 90% and the “primary metabolites after incubation with HLMs” value [3] was “dealkylation reactions”.
For `CCc1nnc2c(Nc3cccc(NC(=O)CCCCCCNc4cccc5c4C(=O)N(C4CCC(=O)NC4=O)C5=O)c3)nc3ccccc3n12` (stereo not drawn) [compound 4], the “BRD9 protein levels (degradation)” value (BRD9; [6]) was “no effect was observed” and the U937 cell viability (U937 cells [1]) was “did not observe variation in cell viability”.
In the case of `CCc1nnc2c(Nc3cccc(NC(=O)CCOCCOCCOCCNc4cccc5c4C(=O)N(C4CCC(=O)NC4=O)C5=O)c3)nc3ccccc3n12` (stereo not drawn) [compound 7], the “BRD9 protein levels (degradation)” value (BRD9; [6]) is reported as “no effect was observed” and the U937 cell viability (U937 cells [1]) is reported as “did not observe variation in cell viability”.
With `CCCCc1nnc2c(Nc3cccc(NC(=O)CCCCCCOCCOCC(=O)N[C@H](C(=O)N4C[C@H](O)C[C@H]4C(=O)NCc4ccc(-c5scnc5C)cc4)C(C)(C)C)c3)nc3ccccc3n12` [compound 9] the IC50 (BRD9 (BD1) [2]) was 660 ± 40 nM, the “fold higher binding affinity to BRD9 compared to degrader 2” value (BRD9 (BD1) [2]; compared to compound 2) was 4.5 fold and the “BRD9 protein levels with proteasome inhibitor MG132” value (BRD9; 48 hours treatment with or without MG132 (25 µM for 6 hours)) was “MG132 treatment rescued BRD9 depletion”. For the same molecule, the “concentration at which BRD9 degradation is effectively induced” value (BRD9; [6]) was 1 µM, the BRD7 protein levels (BRD7) was “not interfering with BRD7 protein levels” and the U937 cell viability (U937 cells [1]) was “significantly impaired leukemic cell viability”. The “ability to reduce leukemic cell viability and AML cell proliferation compared with dBRD9” value (U937 cells [1]; U937 cells, versus reference dBRD9) was “superior ability to reduce leukemic cell viability and AML cell proliferation”, the AML cell proliferation (U937 cells [4]) was “negatively affected AML cell proliferation” and the recovery at 120 min (Human plasma stability) was ≥ 90%. The “primary metabolites after incubation with HLMs” value [3] was “dealkylation reactions”.
In the case of `CCc1nnc2c(Nc3cccc(NC(=O)CCOCCNc4cccc5c4C(=O)N(C4CCC(=O)NC4=O)C5=O)c3)nc3ccccc3n12` (stereo not drawn) [compound 5], the U937 cell viability (U937 cells [1]) is reported as “strong reduction of cell viability”.
In the case of `CCc1nnc2c(Nc3cccc(NC(C)=O)c3)nc3ccccc3n12` [compound 1], the “BRD9 protein levels (degradation)” value (BRD9; [6]) is listed as “only a slight reduction in BRD9 protein levels”, the U937 cell viability (U937 cells [1]) is listed as “minimally affected” and the IC50 (BRD9 (BD1) [5]) is listed as 4200 ± 1920 nM.

From paper PMC12172596, “Unveiling New Triazoloquinoxaline‐Based PROTACs Designed for the Selective Degradation of the ncBAF Chromatin Remodeling Subunit BRD9” (Chemistry (Weinheim an Der Bergstrasse, Germany), 2025)
